# Assay results taken from ChEMBL document CHEMBL1201862, “PubChem BioAssay data set” (2004).
# Counter-ions that a name gives are not always drawn. Active and inactive are the calls of the source.
# Tests used:
# [1] = luciferase reporter signal suppression in cells – H4 neuroglioma cells, luminescence, dose response (AID 1990); format: functional, cell-based
# [2] = tested on: BJ; experiment: BJ-TERT fibroblast viability loss – cell-based, RAS-independent, luminescence, dose response (AID 1933); format: functional; conditions: Homo sapiens
# [3] = Luminescence Cell-Based Dose Response HTS to Identify Inhibitors of 5'UTR Stem-Loop Driven Prion Protein mRNA Translation in H4 Neuroglioblastoma Cells. [Related pubchem assays: 1827 (Project Summary), 1813 (Primary HTS)]; format: functional
# [4] = alpha-synuclein stem-loop luciferase translation blockers – H4 neuroglioma cells, luminescence, confirmation (AID 1988); format: functional, cell-based
# [5] = tested on: BJ; experiment: cells; format: functional, cell-based; conditions: Homo sapiens
# [6] = microbe, parasite or virus in culture; format: functional; conditions: Mycobacterium tuberculosis
# [7] = target: Heat shock protein HSP 90-alpha (Homo sapiens, UniProt P07900); experiment: Luminescence-based dose response biochemical high throughput screening assay for inhibitors of the Heat Shock Protein 90 (HSP90). [Related pubchem assays: 1831 (Summary AID.), 1846 (Confirmation screen.), 1789 (Primary screen.)]
# [8] = tested on: BJ; experiment: BJ-TERT-LT-ST fibroblast viability loss – cell-based, RAS-independent, luminescence, dose response (AID 1935); format: functional; conditions: Homo sapiens;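 further: BJ fibroblasts immortalized with TERT plus LT and ST oncogenes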
# [9] = DRD fibroblast viability loss – cell-based, non-viral oncogenic, luminescence, dose response (AID 1934); format: functional; conditions: Homo sapiens
# [10] = target: T1, Ubiquitin-conjugating enzyme E2 N (Homo sapiens, UniProt P61088); format: functional;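 further: Dose-response confirmation in a TR-FRET assay detecting UBC13-driven polyubiquitin chain formation, inhibition measured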
# T1 sequence (P61088 whole entry): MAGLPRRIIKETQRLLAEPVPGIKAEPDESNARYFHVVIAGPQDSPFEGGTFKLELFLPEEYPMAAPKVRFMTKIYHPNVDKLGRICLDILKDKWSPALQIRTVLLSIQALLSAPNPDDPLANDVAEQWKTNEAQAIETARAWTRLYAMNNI
# [11] = viability inhibitors of stage V gametocytes – luminescence, dose response (AID 1117278); format: functional, cell-based;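 further: gametocytes exposed to compound for 24 hours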
# [12] = viability loss in human Jurkat cells – cell-based, luminescence, cytotoxicity control for P. falciparum gametocyte viability project, dose response (AID 1117277); format: functional;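 further: potency reflects loss of cellular ATP meaning fewer viable cells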
# [13] = target: T2, Voltage-gated N-type calcium channel alpha-1B subunit/Amyloid beta A4 precursor protein-binding family A member 1 (Homo sapiens, UniProt Q00975+Q02410); format: protein assay
# [14] = target: T2, Voltage-gated N-type calcium channel alpha-1B subunit/Amyloid beta A4 precursor protein-binding family A member 1; format: protein assay; remark: listed apart in the source
# [15] = target: Bifunctional protein GlmU (Mycobacterium tuberculosis, UniProt P9WMN3); experiment: Inhibitors of Mycobacterial Glucosamine-1-phosphate acetyl transferase (GlmU). Secondary screen.; parameters: species or system Mycobacterium tuberculosis H37Rv
# [16] = target: Glucose-6-phosphate 1-dehydrogenase (Homo sapiens, UniProt P11413); experiment: inhibition of Homo sapiens G6PD, dose series – biochemical, fluorescence, selectivity assay for P. falciparum G6PD inhibitor project, dose response (AID 504792); format: functional
# [17] = target: Eukaryotic translation initiation factor 4E (Mus musculus, UniProt P63073); experiment: blockers of eIF4G binding by eIF4E – biochemical, TR-FRET, dose response (AID 855); format: functional;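 further: potency for disrupting eIF4E binding to eIF4GI seen as loss of FRET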
# [18] = tested on: H9c2; experiment: cells; format: functional, cell-based; conditions: Rattus norvegicus, H9c2, Myocardium;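 further: confirmatory concentration-response retest of ultra-high-throughput screening hits for modulation of myocardial damage; cell death induced by hydrogen peroxide oxidative stress; compound pretreatment for 60 min then peroxide exposure for 2 h; potency is for protecting the cells against peroxide damage rather than for killing them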
# [19] = target: Transthyretin (Homo sapiens, UniProt P02766); experiment: Luminescence-based cell-based high throughput dose response assay to identify activators of Transthyretin (TTR) transcription.; format: functional
# [20] = target: Ras and Rab interactor 1/Tyrosine-protein kinase ABL1 (Homo sapiens, UniProt P00519+Q13671); format: functional;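 further: biochemical TR-FRET dose-response test measuring inhibition of binding between Rin1 and Abl proteins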
# [21] = lung carcinoma cell viability loss – CellTiter-Glo luminescence, dry powder, set 17, dose response (AID 1117284); format: functional, cell-based; conditions: A549
# [22] = inhibitors of TRPM1-promoter reporter in SK-MEL-5 – cell-based, luciferase, dry powder, set 9, MITF inhibitor project, dose response (AID 651588); format: functional
# [23] = cytotoxicity in MITF-independent A375 cells – cell-based, CellTiter-Glo luminescence, dry powder, set 4, counter-screen for MITF inhibitor project, dose response (AID 624364); format: functional; conditions: A-375;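 further: A375 melanoma cells are MITF independent so this is a counter screen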
# [24] = viability loss in MITF-independent A375 cells – cell-based, CellTiter-Glo luminescence, dry powder, set 7, counter-screen for MITF inhibitor project, dose response (AID 624490); format: functional; conditions: A-375
# [25] = MITF Orthogonal Assay: MALME3 CTG Assay Measured in Cell-Based System Using Plate Reader - 2084-04_Inhibitor_Dose_DryPowder_Activity_Set6.; format: functional; conditions: MALME-3
# [26] = growth inhibition of SK-MEL-5 melanoma cells – cell-based, CellTiter-Glo luminescence, dry powder, set 8, orthogonal assay for MITF inhibitor project, dose response (AID 651586); format: functional
# [27] = growth inhibition of MALME3 cells – cell-based, CellTiter-Glo luminescence, dry powder, set 5, orthogonal assay for MITF inhibitor project, dose response (AID 651584); format: functional; conditions: MALME-3
# [28] = cytotoxicity in melanoma parental cells – cell-based, CellTiter-Glo, dry powder, set 6, MITF inhibitor project, dose response (AID 624429); format: functional; conditions: SK-MEL-5
# [29] = MITF Orthogonal Assay: SK-MEL-5 CTG Assay Measured in Cell-Based System Using Plate Reader - 2084-02_Inhibitor_Dose_DryPowder_Activity_Set5.; format: functional
# [30] = MITF Measured in Cell-Based System Using Plate Reader - 2084-01_Inhibitor_Dose_DryPowder_Activity_Set6.; format: functional
# [31] = MITF Measured in Cell-Based System Using Plate Reader - 2084-01_Inhibitor_Dose_DryPowder_Activity_Set7.; format: functional
# [32] = melanocyte viability loss, MITF-dependent cells, cell-based, plate reader, dry powder, cytotoxicity control, dose response (AID 651920); format: functional
# [33] = BioA aminotransferase inhibition, coupled fluorescent readout – biochemical, coupled fluorescence displacement, 20-point, dry powder, dose response (AID 743357); format: functional
# [34] = target: RNA-editing ligase 1, mitochondrial (Trypanosoma brucei brucei, UniProt P86926); experiment: inhibition of trypanosome RNA editing ligase – biochemical, fluorescence, Trypanosoma brucei, dose response (AID 1117295); format: functional
# [35] = luciferase reporter signal reduction – luminescence, H4-C neuroglioblastoma cells, dose response (AID 2458); format: functional, cell-based;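 further: H4 neuroglioblastoma cells stably carrying a luciferase reporter gene fusion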
# [36] = cells; format: functional, cell-based
# [37] = alpha-synuclein stem-loop translation blockers – luminescence, H4 neuroglioblastoma cells, dose confirmation, confirmation (AID 2454); format: functional, cell-based;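 further: H4 neuroglioblastoma cells carrying an alpha-synuclein 5'UTR luciferase reporter; potency for inhibition of the luciferase signal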
# [38] = HEK-293T viability loss after treatment – luminescence, T-cell screen hits, cytotoxicity control for TCR NF-kB inhibitor project, dose response (AID 489026); format: functional, cell-based;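 further: cells exposed to compound about 14 hours before the viability readout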
# [39] = cells; format: functional, cell-based; remark: listed apart in the source
# [40] = target: T3, Nuclear receptor subfamily 0 group B member 1 (Homo sapiens, UniProt P51843); format: functional, cell-based;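 further: HEK293T cells transfected with SF-1 and DAX-1 plus StAR promoter luciferase reporter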
# T3 sequence (P51843 whole entry): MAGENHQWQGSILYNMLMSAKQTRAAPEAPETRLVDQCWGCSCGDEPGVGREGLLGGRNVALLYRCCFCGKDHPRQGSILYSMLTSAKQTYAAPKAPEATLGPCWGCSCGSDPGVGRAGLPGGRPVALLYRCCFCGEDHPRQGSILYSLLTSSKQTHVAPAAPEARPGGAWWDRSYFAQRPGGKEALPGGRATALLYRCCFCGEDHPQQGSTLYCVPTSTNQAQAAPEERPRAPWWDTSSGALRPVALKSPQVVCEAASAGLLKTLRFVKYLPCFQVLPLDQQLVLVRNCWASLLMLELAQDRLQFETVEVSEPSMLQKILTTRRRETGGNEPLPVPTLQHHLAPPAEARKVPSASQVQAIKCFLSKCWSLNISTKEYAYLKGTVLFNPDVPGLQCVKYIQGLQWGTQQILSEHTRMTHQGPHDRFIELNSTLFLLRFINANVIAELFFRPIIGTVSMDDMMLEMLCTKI
# [41] = target: Paired box protein Pax-8 (Homo sapiens, UniProt Q06710); experiment: PAX8 transcriptional activity inhibition in RMG-I – RMG-I cells, luciferase, cherry-pick, dose response (AID 687027); format: functional, cell-based;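 further: luciferase reporter driven by Pax8 target thyroperoxidase promoter measured by SteadyGlo luminescence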
# [42] = inhibitors acting on PAX2 in cells – cell-based, plate reader, dry powder samples, selectivity assay for PAX8 inhibitor project, dose response (AID 743048); format: functional;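 further: HEK293 cells carrying a WT1 promoter luciferase reporter driven by expressed Pax2; potency is for inhibition of Pax2 driven reporter signal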
# [43] = COV362 cell viability loss – plate reader, dry powder, SA12, cytotoxicity control for PAX8 inhibitor project, dose response (AID 743144); format: functional, cell-based
# [44] = toxicity toward immortalized ovarian surface epithelium – cell-based, plate reader, dry powder samples, cytotoxicity control for PAX8 inhibitor project, dose response (AID 743045); format: functional
# [45] = A2780 cell killing – plate reader, dry powder samples, cytotoxicity control, dose response (AID 743046); format: functional, cell-based
# [46] = OVCAR-3 cell viability loss – plate reader, dry powder samples, PAX8 inhibitor project, dose response (AID 743044); format: functional, cell-based
# [47] = PAX5 cellular inhibition readout – cell-based, plate reader, dry powder samples, selectivity assay for PAX8 inhibitor project, dose response (AID 743047); format: functional;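 further: HEK293 cells carrying a Pax5 driven CD19 promoter luciferase reporter; potency of inhibitors that lower reporter luminescence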
# [48] = IGROV1 cell killing – plate reader, dry powder samples, PAX8 inhibitor project, dose response (AID 743043); format: functional, cell-based; conditions: IGROV-1
# [49] = OVCAR4 cell viability loss – plate reader, dry powder, SA11, cytotoxicity control for PAX8 inhibitor project, dose response (AID 743150); format: functional, cell-based; conditions: OVCAR-4
# [50] = COV434 cell viability loss – plate reader, dry powder, SA7, cytotoxicity control for PAX8 inhibitor project, dose response (AID 743145); format: functional, cell-based
# [51] = OV-90 cell viability loss – plate reader, dry powder, SA8, PAX8 inhibitor project, dose response (AID 743149); format: functional, cell-based
# [52] = PAX8-dependent cell viability loss – plate reader, dry powder, dose response (AID 743049); format: functional, cell-based
# [53] = IC50 of insulin release inhibition, rat insulinoma INS-1E line, 5 mM glucose, cell-based (AID 1117331); format: functional
# [54] = cells; format: functional, cell-based; conditions: INS-1E
# [55] = rise of 2N DNA cells, HeLa – IC50, dose response (AID 1117349); format: functional, cell-based
# [56] = rise of 4N DNA cells, HeLa – IC50, dose response (AID 1117351); format: functional, cell-based
# T2 sequence (Q00975 whole entry): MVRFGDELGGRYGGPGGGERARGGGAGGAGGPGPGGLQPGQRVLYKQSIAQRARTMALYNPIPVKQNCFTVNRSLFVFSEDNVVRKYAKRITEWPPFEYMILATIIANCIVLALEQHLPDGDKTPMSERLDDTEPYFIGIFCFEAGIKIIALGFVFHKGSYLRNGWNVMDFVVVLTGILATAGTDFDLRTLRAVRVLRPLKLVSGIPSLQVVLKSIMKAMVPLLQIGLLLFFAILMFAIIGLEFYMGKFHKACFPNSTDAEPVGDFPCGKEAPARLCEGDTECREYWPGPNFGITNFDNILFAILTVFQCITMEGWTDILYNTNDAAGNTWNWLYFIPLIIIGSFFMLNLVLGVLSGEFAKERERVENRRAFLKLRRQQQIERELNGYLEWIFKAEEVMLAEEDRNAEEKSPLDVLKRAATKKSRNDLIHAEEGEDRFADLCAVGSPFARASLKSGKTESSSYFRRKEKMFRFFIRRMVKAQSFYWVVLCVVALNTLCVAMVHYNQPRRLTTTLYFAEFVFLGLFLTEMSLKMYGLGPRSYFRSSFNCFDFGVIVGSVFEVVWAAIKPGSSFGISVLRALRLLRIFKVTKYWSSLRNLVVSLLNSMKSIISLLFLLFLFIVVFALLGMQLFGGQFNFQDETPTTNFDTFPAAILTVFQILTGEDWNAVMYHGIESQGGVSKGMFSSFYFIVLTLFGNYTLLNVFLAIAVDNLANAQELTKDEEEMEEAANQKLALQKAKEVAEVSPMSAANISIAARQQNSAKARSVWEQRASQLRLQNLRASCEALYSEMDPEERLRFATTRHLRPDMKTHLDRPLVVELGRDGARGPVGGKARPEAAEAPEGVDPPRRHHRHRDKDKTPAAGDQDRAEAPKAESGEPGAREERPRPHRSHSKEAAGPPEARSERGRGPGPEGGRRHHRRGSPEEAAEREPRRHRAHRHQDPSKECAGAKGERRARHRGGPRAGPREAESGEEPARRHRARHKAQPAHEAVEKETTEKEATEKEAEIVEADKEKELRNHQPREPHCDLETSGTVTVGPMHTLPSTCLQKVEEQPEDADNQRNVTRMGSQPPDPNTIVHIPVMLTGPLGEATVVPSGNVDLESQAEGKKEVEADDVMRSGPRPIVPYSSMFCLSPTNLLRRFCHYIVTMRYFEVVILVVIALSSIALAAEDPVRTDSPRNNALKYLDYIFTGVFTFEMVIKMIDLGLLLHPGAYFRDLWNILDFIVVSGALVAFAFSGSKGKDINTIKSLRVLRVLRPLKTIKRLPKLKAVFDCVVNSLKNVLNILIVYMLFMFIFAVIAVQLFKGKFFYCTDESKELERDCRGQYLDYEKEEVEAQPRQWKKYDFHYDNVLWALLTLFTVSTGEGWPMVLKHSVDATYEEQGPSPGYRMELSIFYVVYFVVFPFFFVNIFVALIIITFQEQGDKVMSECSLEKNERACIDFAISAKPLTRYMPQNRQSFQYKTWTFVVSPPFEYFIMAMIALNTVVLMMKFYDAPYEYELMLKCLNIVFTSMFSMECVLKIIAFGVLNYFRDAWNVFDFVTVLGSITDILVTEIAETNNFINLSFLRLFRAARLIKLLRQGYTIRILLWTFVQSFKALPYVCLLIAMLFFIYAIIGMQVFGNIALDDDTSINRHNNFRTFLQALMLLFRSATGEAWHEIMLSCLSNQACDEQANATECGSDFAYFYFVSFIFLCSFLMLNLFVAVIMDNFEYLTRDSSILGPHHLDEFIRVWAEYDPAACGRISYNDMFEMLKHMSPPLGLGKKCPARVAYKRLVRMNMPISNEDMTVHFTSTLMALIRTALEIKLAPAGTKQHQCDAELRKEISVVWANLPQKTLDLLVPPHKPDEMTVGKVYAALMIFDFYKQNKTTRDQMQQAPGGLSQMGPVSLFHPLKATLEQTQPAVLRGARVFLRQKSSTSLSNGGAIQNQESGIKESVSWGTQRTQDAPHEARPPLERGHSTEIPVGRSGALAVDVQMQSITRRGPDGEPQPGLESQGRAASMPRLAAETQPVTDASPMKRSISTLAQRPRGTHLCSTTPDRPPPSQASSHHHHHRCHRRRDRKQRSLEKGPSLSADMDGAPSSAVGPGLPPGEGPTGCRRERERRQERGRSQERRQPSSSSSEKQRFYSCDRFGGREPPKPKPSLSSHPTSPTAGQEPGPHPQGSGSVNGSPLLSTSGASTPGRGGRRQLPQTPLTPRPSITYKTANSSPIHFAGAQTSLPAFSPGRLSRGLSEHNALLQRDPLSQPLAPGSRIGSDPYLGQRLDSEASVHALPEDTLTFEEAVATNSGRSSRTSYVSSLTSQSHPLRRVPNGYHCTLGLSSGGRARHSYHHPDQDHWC
# T2 sequence (Q02410 whole entry): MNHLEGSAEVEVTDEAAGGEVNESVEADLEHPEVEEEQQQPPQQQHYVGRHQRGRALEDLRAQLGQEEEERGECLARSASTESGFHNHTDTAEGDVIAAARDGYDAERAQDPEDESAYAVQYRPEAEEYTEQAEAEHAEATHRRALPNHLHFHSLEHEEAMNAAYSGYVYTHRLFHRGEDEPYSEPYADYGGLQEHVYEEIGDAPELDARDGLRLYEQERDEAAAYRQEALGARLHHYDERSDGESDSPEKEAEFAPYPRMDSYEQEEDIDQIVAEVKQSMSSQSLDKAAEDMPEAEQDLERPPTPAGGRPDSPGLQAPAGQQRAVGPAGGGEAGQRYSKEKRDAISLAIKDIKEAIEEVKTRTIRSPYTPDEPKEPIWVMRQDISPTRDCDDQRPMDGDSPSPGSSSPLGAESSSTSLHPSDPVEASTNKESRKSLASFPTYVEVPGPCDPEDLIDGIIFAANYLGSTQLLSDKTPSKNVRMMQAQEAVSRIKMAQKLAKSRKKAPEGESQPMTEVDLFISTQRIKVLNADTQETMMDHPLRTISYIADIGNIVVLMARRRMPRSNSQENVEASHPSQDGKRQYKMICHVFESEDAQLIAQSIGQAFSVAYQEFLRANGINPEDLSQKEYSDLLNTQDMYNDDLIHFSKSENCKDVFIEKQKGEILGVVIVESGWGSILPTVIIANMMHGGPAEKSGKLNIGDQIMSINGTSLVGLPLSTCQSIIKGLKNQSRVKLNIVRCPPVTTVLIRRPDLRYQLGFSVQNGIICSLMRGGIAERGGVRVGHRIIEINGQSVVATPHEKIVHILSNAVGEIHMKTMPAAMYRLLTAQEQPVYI
# Eukaryotic translation initiation factor 4E, sequence (P63073 whole entry): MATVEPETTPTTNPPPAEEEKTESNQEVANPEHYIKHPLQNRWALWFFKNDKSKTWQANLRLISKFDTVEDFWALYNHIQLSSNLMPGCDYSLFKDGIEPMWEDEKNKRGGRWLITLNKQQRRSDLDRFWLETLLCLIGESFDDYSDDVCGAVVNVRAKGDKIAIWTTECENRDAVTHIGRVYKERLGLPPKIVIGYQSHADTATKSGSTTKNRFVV
# Paired box protein Pax-8, sequence (Q06710 whole entry): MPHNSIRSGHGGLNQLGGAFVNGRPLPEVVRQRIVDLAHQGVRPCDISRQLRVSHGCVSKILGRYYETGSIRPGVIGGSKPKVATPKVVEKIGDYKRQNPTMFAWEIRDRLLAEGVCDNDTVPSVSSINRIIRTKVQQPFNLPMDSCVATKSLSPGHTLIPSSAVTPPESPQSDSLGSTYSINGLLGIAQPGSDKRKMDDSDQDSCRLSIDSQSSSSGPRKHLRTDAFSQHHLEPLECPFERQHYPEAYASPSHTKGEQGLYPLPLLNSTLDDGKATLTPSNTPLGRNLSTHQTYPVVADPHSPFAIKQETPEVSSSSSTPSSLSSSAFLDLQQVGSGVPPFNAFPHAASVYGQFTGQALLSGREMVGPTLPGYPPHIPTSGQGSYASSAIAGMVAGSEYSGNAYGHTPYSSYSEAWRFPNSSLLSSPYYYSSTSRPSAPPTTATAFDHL
# Glucose-6-phosphate 1-dehydrogenase, sequence (P11413 whole entry): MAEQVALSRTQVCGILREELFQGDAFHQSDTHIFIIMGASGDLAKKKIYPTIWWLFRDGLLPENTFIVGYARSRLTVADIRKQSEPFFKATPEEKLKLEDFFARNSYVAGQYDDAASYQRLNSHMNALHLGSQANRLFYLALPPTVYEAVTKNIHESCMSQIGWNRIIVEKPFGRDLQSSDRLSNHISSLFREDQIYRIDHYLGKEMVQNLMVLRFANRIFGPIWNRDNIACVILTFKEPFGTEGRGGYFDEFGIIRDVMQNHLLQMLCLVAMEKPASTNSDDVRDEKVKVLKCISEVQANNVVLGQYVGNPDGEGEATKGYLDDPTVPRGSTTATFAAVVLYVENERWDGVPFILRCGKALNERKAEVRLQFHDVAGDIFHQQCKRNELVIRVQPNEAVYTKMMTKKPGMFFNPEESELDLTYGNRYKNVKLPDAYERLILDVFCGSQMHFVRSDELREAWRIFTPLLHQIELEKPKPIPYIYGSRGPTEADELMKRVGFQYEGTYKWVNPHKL
# RNA-editing ligase 1, mitochondrial, sequence (P86926 whole entry, the tested form may be a part): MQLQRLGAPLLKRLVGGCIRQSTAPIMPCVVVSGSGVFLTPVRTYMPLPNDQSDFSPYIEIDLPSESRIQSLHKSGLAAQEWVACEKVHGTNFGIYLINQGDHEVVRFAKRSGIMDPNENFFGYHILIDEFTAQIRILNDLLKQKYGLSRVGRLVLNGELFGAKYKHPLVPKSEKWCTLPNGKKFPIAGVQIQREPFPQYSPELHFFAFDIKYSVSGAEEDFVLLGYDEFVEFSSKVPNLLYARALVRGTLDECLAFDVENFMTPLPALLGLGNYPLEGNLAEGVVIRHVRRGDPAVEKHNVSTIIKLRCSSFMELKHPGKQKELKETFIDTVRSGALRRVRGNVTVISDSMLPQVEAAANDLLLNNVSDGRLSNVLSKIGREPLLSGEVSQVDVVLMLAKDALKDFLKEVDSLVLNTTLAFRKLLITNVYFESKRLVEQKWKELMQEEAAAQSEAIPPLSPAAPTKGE
structure (smiles),measurement,setting,value
COc1ccc(-c2cc3c(=O)n(CC(=O)NCCCN4CCC(Cc5ccccc5)CC4)ncn3n2)cc1,EC50,[1],9.23 µM (inconclusive)
same,EC50,[2],10.1 µM (active)
same,EC50,[3],11.4 µM (active)
same,EC50,[4],8.06 µM (active)
same,EC50,[5],16.4 µM (active)
same,CC50,[6],34.2 µM (active)
same,IC50,[7],6.82 µM (active)
same,EC50,[8],12.9 µM (inconclusive)
same,EC50,[9],8.08 µM (active)
same,IC50,[10],> 20 µM (inactive)
COc1ccc(CC(=O)Nc2cccc(-c3ccc4nnc(C)n4n3)c2)cc1OC,IC50,[11],> 109 µM (inactive)
same,IC50,[12],35.6 µM (inactive)
O=C1Nc2ccccc2C(=O)C1(Cl)Cc1ccccc1 (stereo not drawn),IC50,[13],23.3 µM (active)
same,IC50,[14],> 50 µM (inactive)
same,IC50,[15],62.9 µM (active)
same,IC50,[16],> 80 µM (inactive)
same,IC50,[17],> 64 µM (inactive)
same,IC50,[18],17.2 µM (active)
C=CCn1c(=O)c2c(nc3n2CC(C)CN3Cc2ccccc2)n(C)c1=O (stereo not drawn),EC50,[19],> 167 µM (inactive)
C[C@@H]1CN([C@H](C)CO)S(=O)(=O)c2ccc(C#C[C@@H](C)O)cc2O[C@@H]1CN(C)Cc1ccc(-c2ccccc2)cc1,IC50,[20],9.68 µM (active)
same,AC50,[21],36.1 µM (active)
O=C1C=C(NS(=O)(=O)c2cccs2)C(=O)c2ccccc21,AC50,[22],16.9 µM (active)
same,AC50,[23],> 70 µM (inactive)
same,AC50,[24],> 70 µM (inactive)
same,AC50,[25],57.6 µM (active)
same,AC50,[26],32.8 µM (active)
same,AC50,[27],57.6 µM (active)
same,AC50,[28],13.3 µM (active)
same,AC50,[29],15.8 µM (active)
same,AC50,[30],6.01 µM (active)
same,AC50,[31],5.89 µM (active)
same,AC50,[32],17.6 µM (active)
O=C(c1ccc2c(c1)OCO2)N1CCN(c2ccc(S(=O)(=O)C(F)F)cc2)CC1,AC50,[33],16.7 µM (active)
C=CCNC1=NC(c2ccccc2C(F)(F)F)C(C(=O)OC)=C(C)N1Cc1cccc(C(F)(F)F)c1 (stereo not drawn),IC50,[34],> 96.6 µM (inactive)
CN[C@H]1CCc2cc(OC)c(OC)c(OC)c2-c2ccc(OC)c(=O)cc21 [DEMECOLCINE],EC50,[1],< 0.1 µM (active)
same,EC50,[35],0.078 µM (active)
same,EC50,[36],0.08 µM (active)
same,EC50,[4],< 0.1 µM (active)
same,EC50,[37],0.085 µM (active)
same,IC50,[38],> 80 µM (inactive)
same,IC50,[39],> 67.6 µM (inactive)
same,IC50,[40],> 0.834 µM (active)
same,AC50,[41],< 0.26 µM (active)
same,AC50,[42],0.217 µM (active)
same,AC50,[43],0.0966 µM (active)
same,AC50,[44],0.113 µM (active)
same,AC50,[45],0.234 µM (active)
same,AC50,[46],0.318 µM (active)
same,AC50,[47],> 100 µM (inactive)
same,AC50,[48],6.35 µM (active)
same,AC50,[49],0.113 µM (active)
same,AC50,[50],0.0615 µM (active)
same,AC50,[51],0.0488 µM (active)
same,AC50,[52],0.0967 µM (active)
NCc1ccc(S(N)(=O)=O)cc1 [MAFENIDE HYDROCHLORIDE],IC50,[53],> 33.3 µM (inactive)
same,IC50,[54],> 33.3 µM (inactive)
CC(=O)Oc1ccccc1C(=O)Nc1ncc([N+](=O)[O-])s1 [NITAZOXANIDE],IC50,[55],> 10 µM (inactive)
same,IC50,[56],> 10 µM (inactive)
